# Columns and labels:
# E. coli culture = experiment: Toxicity to bacteria (absorbance of bacteria culture, OD600nm); assay type: cell-based, Escherichia coli; conditions: 0.5 mM; for toxicity throughout the assay: 8 hours, versus negative control without inducer
# Experimental: (§1) The bacteria strain E. coli XL1—Blue MRF′ Electroporation-competent cells (Stratagene #200158) containing pGEM-T vector was grown in LB medium adding with appropriate antibiotic (ampicillin). The starter culture was grown by inoculating plasmid containing cells in LB medium added with ampicillin and incubated overnight at 37° C. with shaking at 250 rpm. When culture reached the desired OD, the induction was started.
# The absorbance of the bacteria culture was measured (OD600nm) every hour during 8 hours after the substrate addition. The absorbance was plotted as a function of time representing the toxicity for each inducer. The negative control (no toxicity) consists on an assay without inducer. Assays were performed as triplicate.
# [1] = Stability of compounds in D2O solution at room temperature, followed by 19F NMR and 1H NMR; assay type: physicochemical
# Experimental: Compounds T-16 and T-18 were dissolved in D2O and the resulting solutions were kept at room temperature. The stability of the compound was studied by ^19F NMR and ^1H NMR.
# [2] = test system: β-galactosidase expression (lacZ promoter); experiment: Induction of β-galactosidase expression in E. coli (ONPG assay, OD420nm); assay type: cell-based, Escherichia coli; conditions: for effectiveness as inducer compared with IBCG / effectiveness as inducer compared with IPTG: during 3 h following the substrate addition; for induction of β-galactosidase expression/transcription: inducer 0.5 mM, until 3 hours after addition of ONPG substrate; for efficacy of induction overtime: up to 8 h following substrate addition
# Experimental: as §1
# For each assay the starter culture was appropriately diluted (OD600=0.2) in 1.5 mL of LB medium with 3 μg/mL of ampicillin
# β-galactosidase expression is then induced by addition of either IPTG (Sigma I1284), IBCG or Compounds T-16 and T-18 to final concentrations of 0.5 or 1 mM. After this induction the cultures are incubated for 3 hours at 37° C. with shaking at 250 rpm.
# The β-galactosidase activity was assayed by adding 0.5 mg/mL of the ortho 2-nitrophenyl-β-D-galactopyranoside (ONPG Sigma N1127) as chromogenic substrate. ONPG is hydrolyzed by β-galactosidase to yield galactose and ortho-Nitrophenol, which is yellow in color and absorbs light at 420 nm. The intensity of the color can be used to determine the β-galactosidase activity.
# Absorbance was measured (OD420nm) every hour during 8 hours after the substrate addition. The absorbance was plotted as a function of time representing the induction kinetic of β-galactosidase activity for each inducer and each concentration tested. Assays were performed as triplicate.
# [3] = test system: expression of Green Fluorescent Protein UV (GFPuv) in BLR(DE3) E. coli; experiment: Recombinant GFPuv protein production, total and soluble fractions (SDS-PAGE densitometry); assay type: cell-based, Escherichia coli; conditions: inducer 0.1 mM, 0.05 mM and 0.01 mM
# Experimental: Properties: MW: 27 763 Da. Theoretical pI: 6.13—Theoretical Absorption coefficient: 0.788—Number of Cys: 2 Construction of One Expression Strain: • Construct GFPUV-pET30b/3 was transformed into BLR(DE3) E. coli expression strain. • Cultures were performed from one single colony in a semi-defined Riesenberg medium in order to produce a Research Cell Bank (20 tubes of 1 mL stored at <−70° C.). Pre-cultures and Cultures Conditions: • Pre-cultures and cultures were performed in semi-defined Riesenberg medium, 50 mL and 250 mL flasks-scale, respectively. […] Analysis by SDS-PAGE Stained by Coomassie Blue • Sample: 10 μl deposit of suspension at equivalent OD600nm=8. • The proteins were separated by SDS-PAGE 4-12%, and then colored by Coomassie blue. • Quantitative measurement by densitometry and comparison with standard range of proteins.
# Quantity of proteins (μg) was plotted as a function of time representing the kinetic of induction of GFPuv expression for each inducer and/or concentration tested.
# The induction profile of GFPuv was evaluated for both IPTG and T-18 inducers at different concentrations. […]
structure (smiles),measurement,setting,value
CC(C)(O)C(F)(F)[C@@H]1O[C@H](CO)[C@H](O)[C@H](O)[C@H]1O [Compound T-16],toxicity throughout the assay,E. coli culture,medium toxicity
same,degradation in solution (stability by 19F NMR and 1H NMR),[1]; 10 weeks follow up,without any degradation
same,effectiveness as inducer compared with IBCG,[2]; 0.5 mM,more effective inducers than IBCG
same,effectiveness as inducer compared with IPTG,[2]; 0.5 mM,as effective inducers than IPTG
same,induction of β-galactosidase expression/transcription,[2],efficient inducers
"CC(C)S[C@@H]1O[C@H](CO)[C@H](O)[C@H](O)[C@H]1O [IPTG, isopropyl-β-D -thiogalactopyranoside, reference compound]",toxicity throughout the assay,E. coli culture,medium toxicity
same,efficacy of induction overtime,[2]; 0.5 mM,efficacy decrease
CC(C)C(F)(F)[C@@H]1O[C@H](CO)[C@H](O)[C@H](O)[C@H]1O [Compound T-18],final quantity of GFPuv produced (total fraction) compared with IPTG,[3],higher than with IPTG
same,toxicity compared with IPTG,E. coli culture; after 3 h up to 8 h following the substrate addition,less toxic than IPTG
same,toxicity compared with IPTG,E. coli culture; until 3 h following the substrate addition,as toxic as IPTG
same,degradation in solution (stability by 19F NMR and 1H NMR),[1]; 24 weeks follow up,without any degradation
same,effectiveness relative to IPTG,"[2]; 0.5 mM, 8 h following substrate addition",at least 3 times
same,effectiveness as inducer compared with IBCG,[2]; 0.5 mM,more effective inducers than IBCG
same,effectiveness as inducer compared with IPTG,[2]; 0.5 mM,as effective inducers than IPTG
same,efficacy of induction overtime,[2]; 0.5 mM,remains effective overtime
same,induction of β-galactosidase expression/transcription,[2],efficient inducers

# Source: patent US9062313B2, “Gem-difluorinated C-isopropylgalactoside derivates” (TFCHEM, priority 2011, dated 2015)
